Values quoted from earlier work in US20130324497A1, “COMPOSITIONS AND METHODS FOR TREATING HEPATITIS B VIRUS INFECTION” (priority 2012, published 2013).
Entries after “also recorded” stand apart in the source; their conditions may differ. Read-outs that look alike come from different tables or passages of the source.

Assays:
[1] = tested on: hepatitis B virus; conditions: for cumulative rate of resistance: 5 years
[2] = in vivo
[3] = tested on: HBV mutants resistant to lamivudine

Row | Structure (SMILES) | cumulative rate of resistance ([1]; HBeAg negative patients) | cumulative rate of resistance ([1]; HBeAg positive patients) | adefovir-associated nephrotoxicity, patients [2] | 5-year resistance rate ([1]; 5-year, monotherapy) | susceptibility of lamivudine-resistant mutants [3]
1 | CC(C)(C)C(=O)OCOP(=O)(COCCn1cnc2c(N)ncnc21)OCOC(=O)C(C)(C)C [adefovir dipivoxil, 9-[2-[[bis[(pivaloyloxy)methoxy]-phosphinyl]-methoxy]ethyl]adenine] | ~29% | about 20% | up to 47% |  | 
2 | Nc1ncnc2c1ncn2CCOCP(=O)(O)O [adefovir] |  |  |  | 20-30% | retain susceptibility; also recorded: remain susceptible
